These results are taken from article PMC12084062, “Integrating in vitro and in silico approaches for exploring antidiabetic potential of dimethyl and thiomethyl indolinone derivatives” (PLOS One, 2025).

In brackets after ≈: the same amount, converted by molar mass. Several values for one entry are separate records, joined by “and”; a condition that tells them apart may be missing. Identical values can stand only once.

Common to all, as to format: biochemical
One test concerns protein glycation. The test is described as follows: Protein glycation assay. The settings on record: in vitro. On the procedure:
Briefly, 50 µl of protein solution in distil water was added to 10 µl of glyceraldehyde solution in black microplates. The plates were sealed and incubated at 37 °C for 24 h. After incubation, test compound solutions were then added. Blank containing distilled water served as a negative control (untreated), while Rutin as a positive control. The fluorescence was measured at 370 nm (excitation), and 440 nm (emission). The percentage inhibition was calculated using the following formula:
Percentinhibition=1−fluorescenceoftestwell/fluoresecenceofnegativecontrolx100

Test [1] deals with human recombinant DPP-IV enzyme (Homo sapiens, UniProt P27487). Description: DPP-IV inhibition assay. The settings on record: in vitro; read-out: IC50 against DPP-IV (converted). The procedure:
The assay was carried out according to the established method with slight modification. Various concentrations of the synthesized compounds were added to human recombinant DPP-IV enzyme solution in respective wells of a 96-well plate. After incubation, pNA substrate (Gly-Pro-pNA) dissolved in Tris buffer was added to initiate the reaction and further incubated. After incubation, acetic acid solution was added to stop the reaction and the absorbance was recorded. The percentage inhibition was calculated by using the following equation:
Percentinhibition=1−(absorbanceofthetestwell/absorbanceoftheuntreatedcontrol)x100

In a further test the test system is α-amylase. The test is described as follows: In vitro α-amylase inhibition. The settings on record: for maximum inhibition of α-amylase: at 1000 μg/mL; for IC50 against α-amylase: in vitro. The procedure: The standard protocol of in vitro α-amylase inhibition was performed according to Naeem et al. 70 µL of a 50 mM phosphate buffer (pH 6.0) were combined with 100 µL of the reaction solution. […] (0.057 units) of an enzyme, and 50 µL of the compound being examined was added to the solution. After being thoroughly blended, a 10-minute pre-incubation at 25 °C was carried out. The absorbance of the resulting mixture was measured at a wavelength of 400 nm. Further, a solution equal to 10 µL a 0.5 mM concentration of p-nitrophenyl glucopyranoside was added to the solution, and re-incubation carried out at a 25 °C temperature. The absorbance of the solution was measured at a wavelength of 400 nm after incubation.

Turning to `C[C@@H]1O[C@@H](OC[C@H]2O[C@@H](Oc3c(-c4ccc(O)c(O)c4)oc4cc(O)cc(O)c4c3=O)[C@H](O)[C@@H](O)[C@@H]2O)[C@H](O)[C@H](O)[C@H]1O` [Rutin, reference compound], the “IC50 against protein glycation” value in the test with protein glycation amounted to 20.780 µg/mL (≈ 34 µM).

The IC50 is the concentration needed to halve the response being measured. For `CSc1ccc(/C=C2/C(=O)Nc3cc(Cl)ccc32)cc1` [Compound 2, (E)-3-(4-(Methylthio)benzylidene)-6-chloroindolin-2-one], the “IC50 against protein glycation” value in the test with protein glycation amounted to 341.551 µg/mL (≈ 1130 µM). In addition, in test [1], the IC50 is 156 µM. Also, in the test on α-amylase, the “maximum inhibition of α-amylase” value came out at 75%; the “IC50 against α-amylase” value was 42.691 µg/mL and 42.69 µg/mL.

For `Cc1ccc(/C=C2/C(=O)Nc3cc(Cl)ccc32)c(C)c1` [Compound 1, (E)-3-(2,4-Dimethylbenzylidene)-6-chloroindolin-2-one], the “IC50 against protein glycation” value in the test with protein glycation came to 210.592 µg/mL (≈ 742 µM). Also, in test [1], the IC50 was 110 µM. Further, in the test with α-amylase, the “maximum inhibition of α-amylase” value is 80% and the “IC50 against α-amylase” value worked out at 32.917 µg/mL (≈ 116 µM).
